Assay results taken from patent US4693884A, “Technetium-99m triphosphonates and tetraphosphonates for the scintigraphic visualization of res-containing organs and lymph vessels, and a process for their preparation” (Hoechst Aktiengesellschaft, priority 1982, dated 1987).

Columns and labels:
[1] = Accumulation of phosphoric acid derivatives investigated as technetium-99m diagnostic agents (bone, liver, RES); conditions: in vivo
Excerpt: It is possible to use phosphoric acid derivatives, particularly organic phosphonic acid derivatives, for bone scintigraphy. Many compounds have been investigated in the search for derivatives suitable as a technetium-99m diagnostic agent for bone.

[2] = Example 3: distribution of activity over the organs in rats, lyophilizate; format: in vivo, Sprague-Dawley rats; conditions: 30 min
Method: 8 g of sodium 2,4,4-triphosphonobutyrate are dissolved in about 60 ml of double-distilled water, the pH of the solution then being 8.5. After the pH had been adjusted to 7 with 1N HCl, 120 mg of SnCl2.2H2 O in 3 ml of 1N HCl were added, the pH was adjusted to 6 using 0.1N NaOH, and the solution was made up to 160 ml with double-distilled water. All operations should be carried out under a protective atmosphere of nitrogen gas. The solution thus obtained is freeze-dried in individual 1 ml portions in snap-closure bottles which have previously been frozen with liquid nitrogen. The contents are covered with nitrogen and the bottles are closed.
After storage for some weeks, the lyophilizate is dissolved in 10 ml of physiologic saline containing 2 mCi of technetium-99m-pertechnetate. After 30 minutes, 3 Sprague-Dawley rats (about 200 g) each receive 0.1 ml of this solution injected into the femoral vein, and 30 minutes later the animals are sacrificed with ether and the distribution of activity over the organs is determined. The following mean figures (as percentage of the dose administered) result: […]

[3] = Organ distribution of 99mTc-labeled substances in rats 30 minutes after injection as a function of the amount of substance administered; format: in vivo; conditions: for Blood/ml / Kidneys / Liver / Lung / Remainder of body / Spleen / Thyroid: 30 min after injection, n = 3
Method: Assuming that 2-20 mg of TPB, ETP, PTP or phytate are administered to humans, and assuming that the weight of human is 80 kg, this corresponds to an amount administered of 25-250 μg/kg of body weight. Calculating on the basis of the body weight of rats weighing 200 g, then administration of 5-50 μg of TPB, ETP, PTP or phytate per rat exactly reflects the relationships.
Organ distribution of ^99m Tc TPB, ^99m TC ETP and ^99m Tc
phytate in rats (n = 3) 30
minutes after injection as a function of the amount of substance
(all data as a percentage of the amount of activity administered)

[4] = Example 5: organ distribution of 99mTc ETP in rats; format: in vivo, Sprague-Dawley rats; conditions: 30 min, intravenous
Method: 1.40 g of ethane-1,1,2,2-tetraphosphonic acid are dissolved in about 20 ml of double-distilled water and the pH of the solution is adjusted to 7.0 using 1N sodium hydroxide solution. The total volume of this solution is adjusted to 100 ml with double-distilled water and, while excluding oxygen, 11 mg of SnCl2.2H2 O in 5 ml of aqueous solution are added. The clear solution thus obtained is sterilized by filtration and filled, in 0.2 ml portions, into snap-closure bottles which have previously been cooled with liquid nitrogen, and is then freeze-dried. The contents are covered with nitrogen and the bottles are closed. A bottle then contains about 3.3 mg of Na salt of ETP (corresponding to about 2.7 mg of ETP) and about 11 μg of tin(II).
The substance is labeled with ^99m Tc by the addition of 5 ml of physiologic saline which contains 1.5 mCi of technetium-99m-pertechnetate.After a reaction time of 15 minutes, three Sprague-Dawley rats each received 0.1 ml of this solution by intravenous injection. 30 minutes later, the animals were sacrificed and the organ distribution of ^99m Tc ETP was measured. The following figures (as percentage of the dose administered) were found from this: […]

[5] = Comparison of 99mTc TPB, 99mTc PTP and 99mTc phytate after intravenous injection to dogs; format: in vivo; conditions: intravenous; dogs; compared with phytate
[6] = second amount column (printed 50 μg)
[7] = third amount column (printed 50 μg)
[8] = all amounts of substance investigated

## O=P(O)(O)C(CCC(P(=O)(O)O)P(=O)(O)O)P(=O)(O)O [BTP, butane-1,1,4,4-tetraphosphonic acid]
[1]
  accumulation in bone: virtually not at all
  accumulation in the liver: very preferentially accumulated in the liver

## O=C([O-])C(CC(P(=O)(O)O)P(=O)(O)O)P(=O)(O)O.[Na+] (stereo not drawn) [sodium 2,4,4-triphosphonobutyrate]
[2]; femoral vein, mean of 3 rats
  Blood/ml: 0.03 percentage of the dose adminis
  Kidneys: 0.08 percentage of the dose adminis
  Liver: 96.2 percentage of the dose adminis
  Remainder of body: 4.9 percentage of the dose adminis
  Spleen: 1.9 percentage of the dose adminis
  Thyroid: 0.03 percentage of the dose adminis
  lungs: 0.24 percentage of the dose adminis
[2]; related to the dose administered
  recovered activity total: 103.4%

## O=P(O)(O)C(C(P(=O)(O)O)P(=O)(O)O)P(=O)(O)O [ETP, ethane-1,1,2,2-tetraphosphonic acid]
[3]; (50 μg)
  Blood/ml: 0.02 percentage of the amount of ac
  Kidneys: 0.12 percentage of the amount of activity administered
  Liver: 96.2 percentage of the amount of activity administered
  Lung: 0.18 percentage of the amount of activity administered
  Remainder of body: 7.8 percentage of the amount of activity administered
  Spleen: 2.10 percentage of the amount of activity administered
  Thyroid: 0.03 percentage of the amount of activity administered
[3]; [6]
  Blood/ml: 0.04 percentage of the amount of ac
  Kidneys: 0.16 percentage of the amount of activity administered
  Liver: 95.2 percentage of the amount of activity administered
  Lung: 0.21 percentage of the amount of activity administered
  Remainder of body: 11.2 percentage of the amount of activity administered
  Spleen: 2.13 percentage of the amount of activity administered
  Thyroid: 0.03 percentage of the amount of activity administered
[3]; [7]
  Blood/ml: 0.04 percentage of the amount of ac
  Kidneys: 0.26 percentage of the amount of activity administered
  Liver: 93.6 percentage of the amount of activity administered
  Lung: 0.32 percentage of the amount of activity administered
  Remainder of body: 10.4 percentage of the amount of activity administered
  Spleen: 1.30 percentage of the amount of activity administered
  Thyroid: 0.04 percentage of the amount of activity administered
[3]; [8]
  accumulation in the liver and spleen compared with phytate: markedly higher than that of phytate
  accumulation of activity in the kidneys, blood, femur and remainder of the body compared with phytate: clearly lower than with phytate
[3]; deduction from the animal experiments
  suitability as diagnostic agent for visualization of RES-containing organs compared with 99mTc phytate: unambiguously superior
[4]
  total recovered activity: 104.5%
[4]; three rats
  Blood/ml: 0.02 percentage of the dose adminis
  Kidneys: 0.12 percentage of the dose adminis
  Liver: 96.2 percentage of the dose adminis
  Remainder of body: 7.8 percentage of the dose adminis
  Spleen: 2.1 percentage of the dose adminis
  Thyroid: 0.03 percentage of the dose adminis
  lungs: 0.18 percentage of the dose adminis
[5]
  decrease in activity via the liver after accumulation in the liver is complete: slower
[1]
  accumulation in bone: virtually not at all
  accumulation in the liver: very preferentially accumulated in the liver
